# Values of other authors, collected in patent US10332616B2, “Movable type method applied to protein-ligand binding” (University of Florida Research Foundation, Inc., priority 2013, dated 2019).
# Biological target: T4 Lysozyme mutant
# Conditions: PDB ID 1LI2
row,SMILES,binding affinity (pKd)
1,Oc1ccccc1 [phenol],4.04

# Test system: not given
# Conditions: aqueous solvation free energy, charged compounds (ions)
row,SMILES,Exp. ΔGsolv [kcal/mol]
1,"Nc1cccc(Cl)c1 [i125, 3-chloroaniline, reference compound]",-74.70
2,"O=C(O)C(F)(F)F [i118, trifluoroaceticacid, reference compound]",-59.30

# Same assay, conditions: experimental solvation free energy, neutral compounds test set
row,SMILES,Exp. ΔGsolv [kcal/mol]
1,CC(=O)Nc1ccc(O)cc1 [test3001],-14.83
2,CC(C)Cc1ccc(C(C)C(=O)O)cc1 (centres unmarked) [test2017],-7
3,O=C1C2CC=CCC2C(=O)N1SC(Cl)(Cl)Cl (centres unmarked) [test1014],-9
4,COP(=O)(OC)OC [Compound 0220tri],-8.7
5,CCOP(=S)(OCC)SCSCC [test1045],-4.4
6,CCCN(CCC)c1c([N+](=O)[O-])cc(S(C)(=O)=O)cc1[N+](=O)[O-] [test1040],-8
7,CCOc1ccccc1 [Compound 0246eth],-2.22
8,C1COCCN1 [Compound 0149mor],-7.17
9,CCC(=O)OC [Compound 0094met],-2.93
10,CNC(C)=O [Compound 0235ZNmb],-10
11,COC=O [Compound 0091met],-2.78
12,COc1c(Cl)ccc(Cl)c1C(=O)O [test1025],-9.9
13,CCOP(=S)(OCC)SC(CCl)N1C(=O)c2ccccc2C1=O (centres unmarked) [test1023],-5.7
14,COC(=O)c1sccc1S(=O)(=O)NC(=O)Nc1nc(C)nc(OC)n1 [test1054],-16.2
15,CCC(=O)O [Compound 0087pro],-6.47
16,Cc1ccc(C(=O)N(C)C)cc1 [test0006],-9.76
17,CN1CCN(C)CC1 [Compound 0114NNd],-7.58
18,CC(O)C(F)(F)F (centres unmarked) [Compound 0211tri],-4.16
19,Cc1[nH]c(=O)n(C(C)(C)C)c(=O)c1Cl [test1052],-11.1
20,CCCCN [Compound 0110but],-4.29
21,CNC(C)=O [Compound 0234ENmb],-10
22,O=Cc1ccccc1 [Compound 0074ben],-4.02
23,C=CCO [Compound 0145pro],-5.08
24,CCOP(=S)(OCC)Oc1ccc(Cl)cc1Cl [Compound 0438pho],-3.86
25,CCSCC [Compound 0142die],-1.43

# Same assay, conditions: experimental solvation free energy; test set with 372 neutral compounds
row,SMILES,Exp. ΔGsolv [kcal/mol]
1,Nc1ccc(N=Nc2ccc([N+](=O)[O-])cc2)cc1 [test1058],-11.2
2,C#CCC [Compound 0032but],-0.16
3,CCC(=O)CC [Compound 0079pen],-3.41
4,O=C1CCCC1 [Compound 0077cyc],-4.68
5,Cc1ccccc1C [Compound 0038oxy],-0.9
6,c1ccc2cc3ccccc3cc2c1 [Compound 0042ant],-4.23
7,FC(F)(F)C(F)(F)C(F)(F)F [Compound 0406oct],4.28
8,Brc1ccc(Br)cc1 [Compound 0187dib],-2.3
9,CCCC(C)=O [Compound 0078pen],-3.53
10,C=CCCCC [Compound 0029hex],1.68
11,Cc1cccnc1 [Compound 0120met],-4.77
12,BrCBr [Compound 0178dib],-2.11
13,CCCC(C)Cl (centres unmarked) [Compound 0411chp],0.07
14,CCC [Compound 0003pro],1.96
15,Clc1ccccc1 [Compound 0174chl],-1.12
16,CCCCO[N+](=O)[O-] [test1003],-2.1
17,CC(=O)c1ccccc1 [Compound 0084met],-4.58
18,CC(C)CBr [Compound 0418bri],-0.03
19,Cn1cnc2c(N)ncnc21 [Compound 0402adn],-13.6
20,FC(F)(Cl)C(F)(Cl)Cl [Compound 0206tri],1.77
21,Clc1cccc(-c2ccccc2)c1Cl [Compound 0415dcl],-2.45
22,Cc1cccc(C)n1 [Compound 0125dim],-4.6
23,ClC1=C(Cl)C2(Cl)C3C(Cl)C=CC3C1(Cl)C2(Cl)Cl (centres unmarked) [test1033],-2.6
24,CC#N [Compound 0126eth],-3.89
25,c1ccc2ccccc2c1 [Compound 0041nap],-2.39
26,C#CC=C [Compound 0148but],0.04
27,C=CCC [Compound 0025buta],1.38

# Same assay, conditions: neutral molecule
row,SMILES,ΔGsol experimental value [kcal/mol]
1,"CCOOCC [ethylperoxide, reference compound]",-5.32
